PubChem BioAssay (NCI)
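In this assay, cells in 96-well plates receive the compound at five concentrations for 48 hours. Endpoints are linearly interpolated between the surrounding concentrations. GI50 is the concentration that inhibits growth by half. TGI marks complete inhibition of growth.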

How the values were obtained:
Experiment in all cases: NCI-60 cell line screen, 48 h
[1] = system: U251 CNS
[2] = system: SK-MEL-28 melanoma
[3] = system: OVCAR-3 ovarian
[4] = system: SK-MEL-5 melanoma
[5] = system: HL-60(TB) leukemia
[6] = system: UO-31 renal
[7] = system: NCI-H460 lung
[8] = system: DU-145 prostate
[9] = system: SF-539 CNS
[10] = system: HCT-15 colon
[11] = system: RXF 393 renal
[12] = system: SF-295 CNS
[13] = system: SK-OV-3 ovarian
[14] = system: HCT-116 colon
[15] = system: EKVX NSCLC
[16] = system: NCI-H226 lung
[17] = system: MDA-MB-435
[18] = system: CCRF-CEM leukemia

Row | Compound | TGI [1] [µM] | TGI [2] [µM] | TGI [3] [µM] | TGI [4] [µM] | TGI [5] [µM] | TGI [6] [µM] | TGI [7] [µM] | TGI [8] [µM] | TGI [9] [µM] | TGI [10] [µM] | TGI [11] [µM] | TGI [12] [µM] | TGI [13] [µM] | TGI [14] [µM] | TGI [15] [µM] | TGI [16] [µM] | TGI [17] [µM] | TGI [18] [µM] | GI50 [5] [µM] | GI50 [18] [µM]
1 | CCOC(=O)CCC(NC(=O)c1ccc(Nc2nc3ccccc3nc2-c2cccs2)cc1)C(=O)OCC (stereo not given) | > 100 | > 100 | > 100 | > 100 | > 100 | > 100 | > 100 | > 100 | > 100 | > 100 | > 100 | > 100 | > 100 | > 100 | > 100 | > 100 | > 100 | > 100 |  | 
2 | O=c1oc2ccc3ccccc3c2cc1-c1nc2ccccc2o1 | 53.1 | > 59.2 | 32.4 | 58.8 | > 100 | > 54.8 | > 100 | > 52.3 | 29.3 | > 100 | 34.4 | > 59.3 | > 54.4 | > 53.6 | > 56.2 | > 63.6 | > 60.6 | > 100 |  | 
3 | O=C(O)CC/C(=N\Nc1nsc2ccccc12)c1ccc(Cl)cc1 | 82.4 | 37.4 | 47.2 | > 31.6 | 59.9 | > 67.1 | > 81.5 | > 100 | > 89.8 | 53.5 | > 53.7 | > 100 | 89.6 | 68.9 | > 100 | > 100 | 75.3 | > 54.6 |  | 
4 | NS(=O)(=O)c1ccc(CNc2nc(-c3cccs3)nc3ccc(I)cc23)cc1 | 37.7 | 40.2 | 30.1 | 27 | > 100 | 4.45 | 29.6 | 30.3 | 30.8 | 28.9 | 43.5 | 38 | 52.6 | 28.1 | 29.3 | 40.1 | 27.8 | 59.7 | 29.9 | 21.8
5 | COc1cc2c(c3c1c(=O)c1ccccc1n3C)C=CC1(CCCCC1)O2 | > 10 | > 10 | > 10 | > 6.15 | > 10 | 0.255 | > 10 | > 10 | > 7.22 | > 10 | 2.98 | 4.7 | > 10 | > 10 | > 10 | > 10 | 6.42 | > 10 |  | 
6 | N#CCCN(CCC#N)c1ccc(/C=C2\N=C(c3ccccc3)N(c3ccccn3)C2=O)cc1 | > 100 | > 100 | > 100 | > 100 | > 100 | > 100 | > 100 | > 100 | > 100 | > 100 | > 100 | > 100 | > 100 | > 100 | > 100 | > 100 | > 100 | > 100 |  | 
7 | CC1CCC2C(C(=O)O[C@H]3C4CCO[C@@H](OC5OC(CO)C(O)C(O)C5O)C4[C@@]4(CO)O[C@@H]34)=CO[C@@H](OC3OC(CO)C(O)C(O)C3O)C12 (stereo not given in full) | > 10 | > 10 | > 10 | > 10 | > 10 | > 10 | > 10 | > 10 | > 10 | > 10 | > 10 | > 10 | > 10 | > 10 | > 10 | > 10 | > 10 | > 10 |  | 
8 | COc1cc([N+](=O)[O-])ccc1NC1=CC(=O)CCC1 | > 100 | > 100 | > 100 | > 100 | > 100 | > 100 | > 100 | > 100 | > 100 | > 100 | > 100 | > 100 | > 100 | > 100 | > 100 | > 100 | > 100 | > 100 |  | 
9 | CC(C)n1c2c([n+](C)c1/C=C/c1ccccc1)C(=O)c1ccccc1C2=O | 0.738 | 1.6 | 0.0289 | 0.252 | 1.14 | 10.1 | 2.43 | 0.948 | 0.363 | 23.9 | 2.19 | 2.52 | 1.07 | 0.433 | 1.25 | 2.2 | 0.547 | 10.9 |  | 
10 | CC(CO)C1=CC(C#CCOCc2ccccc2)N(C(=O)Oc2ccccc2)c2ccccc21 (stereo not given) | > 100 | > 100 | 88.2 | 74.5 | > 100 | > 100 | 91.8 | > 100 | > 100 | 29.7 | 23 | 71.9 | > 100 | > 100 | 73 | > 100 | 47.9 | > 100 |  | 
11 | N/N=C1\CCCc2c1no[n+]2[O-] | > 100 | > 100 | > 100 | > 100 | > 100 | > 100 | > 100 | > 100 | > 100 | > 100 | > 100 | > 100 | > 100 | > 100 | > 100 | > 100 | > 100 | > 100 |  | 
